Experimental data: patent US20070037882A1, “Remedy for cerebral neurodegenerative diseases using ppar agonist” (Astellas Pharma Inc., priority 2003, published 2007)

How the values were obtained:
[1] = test system: SH-SY5Y cells; test: Thapsigargin-induced cellular death model, dead cells by LDH assay; type: cell-based, human; conditions: thapsigargin + (100 nM), 24 h, concentration not given
Protocol: SH-SY5Y cells were plated on a 96-well plate (70,000 cell/well in 100 μl DMEM low glucose 10% fetal bovine serum) for overnight culturing, from which the culture medium was removed with an aspirator. Then, DMEM without serum was added at 50 μl/well. […] 2 hours later, DMEM without serum containing 600 nM thapsigargin was added at 20 μl/well. (Thapsigargin to a final 100 nM concentration) (For a control, DMEM without serum alone was added.) 24 hours later, the absorbance at 490 nm was assayed with a cytotoxicity detection kit (Roche) to assay the LDH activity. […] An apparent correlation between the result of the viable cell count as determined by MTT assay in Example 1 and the LDH activity is shown. The above results clearly indicate that the PPARδ agonists are effective on the suppression of the thapsigargin-induced cellular death.

[2] = test system: SH-SY5Y cells; test: Thapsigargin-induced cellular death model, apoptosis by caspase-3/7 assay; type: cell-based, human; conditions: for Caspase 3/7 activity: thapsigargin + (100 nM), 3 h
[3] = test system: SH-SY5Y cells; test: MPP+-induced cellular death model, viable cells by MTT assay; type: cell-based, human; conditions: for MTT assay A490: MPP+ + (3 mM), 24 h
Protocol: SH-SY5Y cells were spread on a 96-well plate (70,000 cell/well in 100 μl DMEM low glucose 10% fetal bovine serum) for overnight culturing, from which the culture medium was removed with an aspirator. Then, DMEM without serum was added at 50 μl/well. […] 2 hours later, DMEM without serum containing 18 mM MPP^+ was added at 20 μl/well. (MPP^+ to a final 3 mM concentration) (For a control, DMEM without serum alone was added).
24 hours later, cell growth activity was assayed by measuring the absorbance at 490 nm, using Celltiter 96 aqueous one solution cell proliferation assay kit (Promega).
In the assay system, MPP^+ as an MPTP metabolite was added to a neuroblastoma SH-SY5Y, to inhibit the mitochondrial complex I to cause the generation of active oxygen and the inhibition of ATP synthesis, to induce cellular death. It is said that in the murine MPTP model commonly used as a model of Parkinson's disease, MPTP passing through the blood brain barrier is metabolized into MPP^+, which exerts toxicity specific to murine nigra cell to induce nerve detachment. Therefore, the assay system can be said as an in vitro assay system mimicking the murine MPTP model.

[4] = test system: SH-SY5Y cells; test: MPP+-induced cellular death model, dead cells by LDH assay; type: cell-based, human; conditions: for LDH release A490: MPP+ + (3 mM), 24 h
Protocol: SH-SY5Y cells were spread on a 96-well plate (70,000 cell/well in 100 μl DMEM low glucose 10% fetal bovine serum) for overnight culturing, from which the culture medium was removed with an aspirator. Then, DMEM without serum was added at 50 μl/well. […] 2 hours later, DMEM without serum containing 18 mM MPP^+ was added at 20 μl/well. (MPP^+ to a final 3 mM concentration) (For a control, DMEM without serum alone was added.)
24 hours later, the dead cell count was calculated on the basis of the LDH activity assayed with a cytotoxicity detection kit (Roche). […] The results reveal that the PPARδ agonists are effective on the suppression of MPP^+-induced cellular death.

[5] = test system: SH-SY5Y cells; test: Staurosporine-induced cellular death model, dead cells by LDH assay; type: cell-based, human; conditions: staurosporine + (150 nM), 24 h
Protocol: SH-SY5Y cells were plated on a 96-well plate (70,000 cell/well in 100 μl DMEM low glucose 10% fetal bovine serum) for overnight culturing, from which the culture medium was removed with an aspirator. Then, DMEM without serum was added at 50 μl/well. […] 2 hours later, DMEM without serum containing 900 nM staurosporine was added at 20 μl/well. (Staurosporine to a final 150 nM concentration) (For a control, DMEM without serum alone was added.) 24 hours later, LDH activity was assayed by measuring the absorbance at 490 nm, using Cytotoxicity detection kit (Roche). […] An apparent correlation is observed with the results of viable cells as determined by the MTT assay in Example 9.

[6] = test system: SH-SY5Y cells; test: Staurosporine-induced cellular death model, apoptosis by caspase-3/7 assay; type: cell-based, human; conditions: for Caspase 3/7 activity: staurosporine + (150 nM), 3 h
Protocol: SH-SY5Y cells were spread on a 96-well plate (70,000 cell/well in 100 μl DMEM low glucose 10% fetal bovine serum) for overnight culturing, from which the culture medium was removed with an aspirator. Then, DMEM without serum was added at 50 μl/well. […] 2 hours later, DMEM without serum containing 900 nM staurosporine was added at 20 μl/well. (Staurosporine to a final 150 nM concentration) (For a control, DMEM without serum alone was added).
3 hours later, the caspase-3/7 activity was assayed with Apo-One homogenous Caspase-3/7 assay kit (Promega).

[7] = test system: rat cerebral infarction model; test: Rat cerebral infarction model (middle cerebral artery-occluded reperfusion, Koizumi method); type: in vivo; conditions: for Lesions with cerebral infarction (area in % of damaged site in the 6 sections), Cortex / Lesions with cerebral infarction (area in % of damaged site in the 6 sections), Subcortex / Lesions with cerebral infarction (area in % of damaged site in the 6 sections), Total: 24 h after reperfusion
[8] = test system: murine MPTP Parkinson's model; test: Murine MPTP Parkinson's model, striate body DA and metabolites; type: in vivo, mice; conditions: for Resumption ratio of content of DA / Resumption ratio of content of DOPAC / Resumption ratio of content of HVA / DA content per wet weight of striate body / DOPAC content per wet weight of striate body / HVA content per wet weight of striate body: MPTP +; for DA content per wet weight of striate body / DOPAC content per wet weight of striate body / HVA content per wet weight of striate body: 4 days after MPTP

In the case of `CCCc1c(OCCCOc2ccc(OCC(=O)O)cc2)ccc(C(C)=O)c1O` [L-165041, 4-[3-[2-propyl-3-hydroxy-4-acetyl]phenoxy]propyloxyphenoxy acetic acid], the “LDH release A490” value ([1]; 2nd '+' line (presumably 0.1 μM)) is reported as 0.6758 ± 0.0183, the “LDH release A490” value ([1]; 3rd '+' line (presumably 1 μM)) is reported as 0.6295 ± 0.0139 and the “LDH release A490” value ([1]; 4th '+' line (presumably 10 μM)) is reported as 0.6029 ± 0.0135. For the same compound, the “LDH release A490” value ([1]; 5th '+' line (presumably 100 μM)) was 0.2987 ± 0.0128, the “suppression of caspase-3/7 activity (in words)” value ([2]; SH-SY5Y, thapsigargin) was “suppress the activity of caspase-3/7” and the “Caspase 3/7 activity” value ([2]; compound 0.1 μM) was 732549 ± 24888 RFLU. The “Caspase 3/7 activity” value ([2]; compound 1 μM) was 652843 ± 8229 RFLU, the “Caspase 3/7 activity” value ([2]; compound 10 μM) was 554233 ± 23703 RFLU and the “Caspase 3/7 activity” value ([2]; compound 100 μM) was 242770 ± 5414 RFLU. The “suppression of MPP+-induced cellular death (in words)” value ([3]; SH-SY5Y, MPP+) was “suppress cellular death induced by MPP^+ in a concentration-dependent manner”, the “MTT assay A490” value ([3]; compound 0.1 μM) was 0.3744 ± 0.0067 and the “MTT assay A490” value ([3]; compound 1 μM) was 0.3935 ± 0.0083. The “MTT assay A490” value ([3]; compound 10 μM) was 0.4799 ± 0.0078, the “MTT assay A490” value ([3]; compound 100 μM) was 0.3181 ± 0.0122 and the “LDH release A490” value ([4]; compound 0.1 μM) was 0.3980 ± 0.0141. For the same compound, the “LDH release A490” value ([4]; compound 1 μM) was 0.3874 ± 0.0120, the “LDH release A490” value ([4]; compound 10 μM) was 0.3133 ± 0.0024 and the “LDH release A490” value ([4]; compound 100 μM) was 0.6709 ± 0.0093. For the same compound, the “cytotoxicity (in words)” value ([4]; concentration of 100 μM, MPP+ model) was “exerted cytotoxicity”, the “LDH release A490” value ([5]; compound 0.1 μM) was 0.5330 ± 0.0298 and the “LDH release A490” value ([5]; compound 1 μM) was 0.5230 ± 0.0160. For the same compound, the “LDH release A490” value ([5]; compound 10 μM) was 0.5319 ± 0.0267, the “suppression of caspase-3/7 activity (in words)” value ([6]; SH-SY5Y, staurosporine) was “suppress the activity of caspase-3/7” and the “Caspase 3/7 activity” value ([6]; compound 0.1 μM) was 535404 ± 23301 RFLU. The “Caspase 3/7 activity” value ([6]; compound 1 μM) was 520732 ± 17273 RFLU, the “Caspase 3/7 activity” value ([6]; compound 10 μM) was 483017 ± 27259 RFLU and the “Lesions with cerebral infarction (area in % of damaged site in the 6 sections), Cortex” value ([7]; 24 μg/head/day i.c.v.) was 12.70 ± 0.63%. The “Lesions with cerebral infarction (area in % of damaged site in the 6 sections), Subcortex” value ([7]; 24 μg/head/day i.c.v.) was 9.98 ± 0.30%, the “Lesions with cerebral infarction (area in % of damaged site in the 6 sections), Total” value ([7]; 24 μg/head/day i.c.v.) was 22.68 ± 0.83% and the “Lesions with cerebral infarction (area in % of damaged site in the 6 sections), Cortex” value ([7]; 240 μg/head/day i.c.v.) was 10.22 ± 1.29 %. For the same compound, the “Lesions with cerebral infarction (area in % of damaged site in the 6 sections), Subcortex” value ([7]; 240 μg/head/day i.c.v.) was 9.19 ± 0.85%, the “Lesions with cerebral infarction (area in % of damaged site in the 6 sections), Total” value ([7]; 240 μg/head/day i.c.v.) was 19.40 ± 1.98% and the “Reduction ratio of cerebral cortex damage” value ([7]; i.c.v. 24 •g/head/day) was 9%. For the same compound, the “Reduction ratio of cerebral cortex damage” value ([7]; i.c.v. 240 •g/head/day) was 27%, the “action to reduce cerebral infarction (in words)” value ([7]; rat cerebral infarction model) was “potent actions to reduce cerebral infarction” and the “Resumption ratio of content of DA” value ([8]; 12 μg/head/day) was 0.42 ± 10.20%. The “Resumption ratio of content of DOPAC” value ([8]; 12 μg/head/day) was −1.45 ± 10.89%, the “Resumption ratio of content of HVA” value ([8]; 12 μg/head/day) was −4.65 ± 12.88% and the “DA content per wet weight of striate body” value ([8]; 12 μg/head/day) was 5.06 ± 1.08 ng/mg tissue. For the same compound, the “DOPAC content per wet weight of striate body” value ([8]; 12 μg/head/day) was 0.28 ± 0.05 ng/mg tissues, the “HVA content per wet weight of striate body” value ([8]; 12 μg/head/day) was 0.66 ± 0.08 ng/mg tissue and the “Resumption ratio of content of DA” value ([8]; 120 μg/head/day) was 26.42 ± 8.83 %. For the same compound, the “Resumption ratio of content of DOPAC” value ([8]; 120 μg/head/day) was 32.22 ± 15.41%, the “Resumption ratio of content of HVA” value ([8]; 120 μg/head/day) was 36.58 ± 16.68% and the “DA content per wet weight of striate body” value ([8]; 120 μg/head/day) was 7.81 ± 0.93 ng/mg tissue. The “DOPAC content per wet weight of striate body” value ([8]; 120 μg/head/day) was 0.44 ± 0.07 ng/mg tissues, the “HVA content per wet weight of striate body” value ([8]; 120 μg/head/day) was 0.91 ± 0.10 ng/mg tissue and the “action of suppressing the decrease of the contents of DA, DOPAC and HVA (in words)” value ([8]; dose of 12 μg/head/day) was “not so greatly observed”. The “action of suppressing the decrease of the contents of DA, DOPAC and HVA (in words)” value ([8]; dose of 120 μg/head/day) was “greatly observed”.
